Results as given in ChEMBL document CHEMBL3039007, “Structure-based identification of OATP1B1/3 inhibitors” (Mol Pharmacol, 2013).

Key:
[1] = molecular target: T1, Solute carrier organic anion transporter family member 1B3 (Homo sapiens, UniProt Q9NPD5); conditions: chinese hamster, cho, 10 µM
T1 sequence (Q9NPD5 whole entry): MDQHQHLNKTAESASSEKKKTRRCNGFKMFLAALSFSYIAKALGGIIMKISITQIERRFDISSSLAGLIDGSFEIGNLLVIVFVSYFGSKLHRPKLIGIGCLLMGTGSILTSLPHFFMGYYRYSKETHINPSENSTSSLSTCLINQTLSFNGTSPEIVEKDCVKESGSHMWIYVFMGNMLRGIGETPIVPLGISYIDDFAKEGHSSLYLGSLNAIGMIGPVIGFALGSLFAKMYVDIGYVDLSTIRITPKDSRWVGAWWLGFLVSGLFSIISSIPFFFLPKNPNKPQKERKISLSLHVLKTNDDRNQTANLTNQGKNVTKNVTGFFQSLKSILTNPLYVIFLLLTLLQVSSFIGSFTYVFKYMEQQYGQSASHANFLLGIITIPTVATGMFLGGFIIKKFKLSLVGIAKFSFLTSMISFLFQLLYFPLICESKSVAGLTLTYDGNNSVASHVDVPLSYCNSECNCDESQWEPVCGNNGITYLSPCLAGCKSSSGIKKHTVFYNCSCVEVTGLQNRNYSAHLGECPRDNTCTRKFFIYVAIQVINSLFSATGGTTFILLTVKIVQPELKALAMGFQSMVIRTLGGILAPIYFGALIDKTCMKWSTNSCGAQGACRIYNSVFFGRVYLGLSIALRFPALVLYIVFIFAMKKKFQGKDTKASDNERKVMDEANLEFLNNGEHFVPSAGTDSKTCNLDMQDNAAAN

[2] = molecular target: T2, Solute carrier organic anion transporter family member 1B1 (Homo sapiens, UniProt Q9Y6L6); conditions: chinese hamster, cho, 10 µM
T2 sequence (Q9Y6L6 whole entry): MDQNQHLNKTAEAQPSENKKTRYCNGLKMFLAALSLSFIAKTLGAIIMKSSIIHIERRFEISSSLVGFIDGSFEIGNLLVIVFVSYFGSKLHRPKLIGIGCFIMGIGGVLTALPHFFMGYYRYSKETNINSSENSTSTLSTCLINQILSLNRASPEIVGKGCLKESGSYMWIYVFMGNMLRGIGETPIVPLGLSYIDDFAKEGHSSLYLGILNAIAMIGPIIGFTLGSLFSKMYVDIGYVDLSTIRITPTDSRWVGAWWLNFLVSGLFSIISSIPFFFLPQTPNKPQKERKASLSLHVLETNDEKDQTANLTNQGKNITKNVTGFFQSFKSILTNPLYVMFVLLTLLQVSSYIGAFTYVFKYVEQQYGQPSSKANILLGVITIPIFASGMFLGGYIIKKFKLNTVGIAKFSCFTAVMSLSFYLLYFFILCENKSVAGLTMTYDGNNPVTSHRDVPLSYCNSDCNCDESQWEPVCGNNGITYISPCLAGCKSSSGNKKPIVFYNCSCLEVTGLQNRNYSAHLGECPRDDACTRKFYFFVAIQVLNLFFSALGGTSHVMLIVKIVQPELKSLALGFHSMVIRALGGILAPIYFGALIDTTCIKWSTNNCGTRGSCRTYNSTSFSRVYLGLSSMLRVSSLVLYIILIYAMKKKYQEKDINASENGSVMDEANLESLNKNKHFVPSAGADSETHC

Compound | residual activity [1] [%] | residual activity [2] [%]
CCN(CC)CCOC(=O)C(c1ccccc1)c1ccccc1.Cl [ADIPHENINE HYDROCHLORIDE] | 95.82 | 59.48
CC(=O)NC(Cc1ccccc1)C(=O)O (stereo unspecified) [AFALANINE] | 112.5 | 114.2
CC1=CCCC2C1(C)CCC(C)C2(C)CC/C(C)=C/Cn1c[n+](C)c2c(N)ncnc21 (stereo unspecified) [AGELASINE (stereochemistry of diterpene unknown)] | 93.91 | 56.98
N=C(N)NCCCCN.O=S(=O)(O)O [AGMATINE SULFATE] | 110 | 111.9
CC[C@H]1[C@@H]2C[C@H]3[C@@H]4N(C)c5ccccc5[C@]45C[C@@H]([C@@H]2[C@H]5O)N3[C@@H]1O [AJMALINE] | 91.52 | 34.58
CC[C@@]1(O)C[C@H](O[C@H]2C[C@H](N(C)C)[C@H](O)[C@H](C)O2)c2c(cc3c(c2O)C(=O)c2c(O)cccc2C3=O)[C@H]1C(=O)OC.Cl [AKLAVINE HYDROCHLORIDE] | 83.91 | 70.22
NC(=O)c1ccc([N+](=O)[O-])cc1Cl [AKLOMIDE] | 100.2 | 115.5
CCc1cccc(CC)c1N(COC)C(=O)CCl [ALACHLOR] | 105 | 103.5
CC(N)C(=O)OC(C)(C)Cc1ccc(Cl)cc1 (stereo unspecified) [ALAPROCLATE] | 98.54 | 84.52
CCCSc1ccc2nc(NC(=O)OC)[nH]c2c1 [ALBENDAZOLE] | 95.9 | 102.7
NC(=O)NCC(N)C(=O)O (stereo unspecified) [ALBIZZIINE] | 110.8 | 118.1
CNC(=O)O/N=C/C(C)(C)SC [ALDICARB] | 80.05 | 120.5
ClC1=C(Cl)C2(Cl)C3C4C=CC(C4)C3C1(Cl)C2(Cl)Cl (stereo unspecified) [ALDRIN] | 124.9 | 121.9
NC(=O)NC1NC(=O)NC1=O (stereo unspecified) [ALLANTOIN] | 86.17 | 67.4
Oc1ncnc2[nH]ncc12 [ALLOPURINOL] | 84.36 | 68.8
O=C1NC(=O)C(=O)C(=O)N1 [ALLOXAN] | 108.5 | 118.2
CN(C)CCc1c[nH]c2ccc(CS(=O)(=O)N3CCCC3)cc12 [ALMOTRIPTAN] | 94.33 | 95.85
O=C1c2c(O)cccc2C([C@@H]2O[C@H](CO)[C@@H](O)[C@H](O)[C@H]2O)c2cc(CO)cc(O)c21 (stereo partly specified) [ALOIN] | 66.8 | 48.46
C/C1=C\CC/C(C)=C/CC(C)(C)/C=C/C1 [ALPHA-HUMULONE] | 109.1 | 112.4
C=CCc1ccccc1OCC(O)CNC(C)C (stereo unspecified) [ALPRENOLOL] | 120.6 | 89.01
C=CCSCC1Nc2cc(Cl)c(S(N)(=O)=O)cc2S(=O)(=O)N1 (stereo unspecified) [ALTHIAZIDE] | 95.11 | 107.1
CCN(CCCc1ccccc1)CCCc1ccccc1.O=C(O)CC(O)(CC(=O)O)C(=O)O [ALVERINE CITRATE] | 74.4 | 48.34
COc1c2c(cc3c1OCO3)[C@]13C=C[C@H](OC)C[C@H]1N(C2)C[C@@H]3O [AMBELLINE] | 88.47 | 91.95
CC(=O)OCC(=O)[C@@]12OC3(CCCC3)O[C@@H]1C[C@H]1[C@@H]3CCC4=CC(=O)C=C[C@]4(C)[C@@]3(F)[C@@H](O)C[C@@]12C [AMCINONIDE] | 56.58 | 35.76

Compound | residual activity [1] [%] | residual activity [2] [%]
Cl.N=C(N)NC(=O)c1nc(Cl)c(N)nc1N.O.O [AMILORIDE HYDROCHLORIDE] | 65.11 | 51.46
Nc1c2ccccc2nc2ccccc12 [AMINACRINE] | 80.82 | 54.19
Nc1ccc(C(=O)O)cc1 [AMINOBENZOIC ACID] | 88.18 | 85.02
CN1[C@@H]2CC[C@H]1C[C@@H](OC(c1ccccc1)c1ccccc1N)C2 (stereo partly specified) [AMINOBENZTROPINE] | 77.23 | 75.33
CCC1(c2ccc(N)cc2)CCC(=O)NC1=O (stereo unspecified) [AMINOGLUTETHIMIDE] | 77 | 52.33
Nc1ccc(C(=O)NCC(=O)O)cc1 [AMINOHIPPURIC ACID] | 94.72 | 82.43
Cl.NCC(=O)CCC(=O)O [AMINOLEVULINIC ACID HYDROCHLORIDE] | 89.23 | 84.34
Nc1nc(N)c2nc(CNc3ccc(C(=O)N[C@@H](CCC(=O)O)C(=O)O)cc3)cnc2n1 [AMINOPTERIN] | 124.5 | 89.56
Nc1ccc(C(=O)[O-])c(O)c1.O.O.[Na+] [AMINOSALICYLATE SODIUM] | 88.86 | 75.75
Nc1nccs1 [AMINOTHIAZOLE] | 76.59 | 92.13
CN(C)CCCO[C@@H]1[C@H]2OC(C)(C)O[C@H]2O[C@@H]1[C@H](O)CO [AMIPRILOSE] | 95.1 | 91.07
Cc1ccc(/N=C/N(C)/C=N/c2ccc(C)cc2C)c(C)c1 [AMITRAZ] | 87.86 | 108.2
CN(C)CCC=C1c2ccccc2CCc2ccccc21.Cl [AMITRIPTYLINE HYDROCHLORIDE] | 80.45 | 53.22
Clc1ccc2c(c1)C(N1CCNCC1)=Nc1ccccc1O2 [AMOXAPINE] | 101.5 | 115.8
C[C@@H]1[C@H](O)[C@@H](C)/C=C/C=C/C=C/C=C/C=C/C=C/C=C/[C@H](O[C@@H]2O[C@H](C)[C@@H](O)[C@H](N)[C@@H]2O)C[C@@H]2O[C@](O)(C[C@@H](O)C[C@@H](O)[C@H](O)CC[C@@H](O)C[C@@H](O)CC(=O)O[C@H]1C)C[C@H](O)[C@H]2C(=O)O [AMPHOTERICIN B] | 99.53 | 89.01
CC1(C)S[C@@H]2[C@H](NC(=O)[C@H](N)c3ccccc3)C(=O)N2[C@H]1C(=O)[O-].[Na+] [AMPICILLIN SODIUM] | 88.9 | 76.76
CCCc1ncc(C[n+]2ccccc2C)c(N)n1 [AMPROLIUM ION] | 78.02 | 67.38
N#C[C@H](O[C@@H]1O[C@H](CO[C@@H]2O[C@H](CO)[C@@H](O)[C@H](O)[C@H]2O)[C@@H](O)[C@H](O)[C@H]1O)c1ccccc1 [AMYGDALIN] | 103.6 | 118.1
CN1CCCCC1c1ccc(-c2cccnc2)nc1.Cl (stereo unspecified) [ANABASAMINE HYDROCHLORIDE] | 108.2 | 100
Cl.c1cncc([C@@H]2CCCCN2)c1 [ANABASINE HYDROCHLORIDE] | 91.54 | 83.96
Cl.N=c1ccn2c(n1)O[C@H]1[C@H](O)[C@@H](CO)O[C@H]12 [ANCITABINE HYDROCHLORIDE] | 66.03 | 68.78
C=C1[C@@H]([C@@]2(C)C=CC(=O)C(C)(C)[C@@H]2CC(=O)OC)CC[C@@]2(C)[C@H](c3ccoc3)OC(=O)[C@H]3O[C@]132 [ANDIROBIN] | 98.71 | 103.8
C=C1CC[C@@H]2[C@](C)(CO)[C@H](O)CC[C@@]2(C)[C@@H]1C/C=C1/C(=O)OC[C@H]1O [ANDROGRAPHOLIDE] | 84.72 | 80.16
C[C@]12C=CC(=O)C=C1CC[C@@H]1[C@@H]2CC[C@]2(C)C(=O)CC[C@@H]12 [ANDROSTENEDONE] | 104 | 128.1
